Reference: patent US20080262019A1, “Optical Isomers of (+) and (-)-Trans-2,3,4,4A,5,9B-Hexahydro-2,8-Dimethyl-1H-Pyrido[4,3-B] Indole” (priority 2005, published 2008)
“Also recorded” adds a separate entry of the source. Marks after values point to notes of the source that are not given here.

Test system: male C57BL/6 mice
Experiment: spontaneous orientation (patroling behavior) test in the closed cross maze
Format: in vivo
Conditions: for F_PtrN, duration of the first patroling cycle (number of arm visits), M / L_TrnN, number of left turns, M / PatrlN, number of patrolling cycles, M / R_TrnN, number of right turns, M / S_PtrN, duration of the second patrolling cycle (number of arm visits), M / S_VisN, spontaneous stereotype behavior, M / rl_Ind, asymmetry index of turns, M / F_ChTm, latency of the first arm visit, M / F_GlTm, length of the first arm visit, M / T_ChTm, total time spent in the central compartment of the maze, M / T_GlTm, total time spent in the side arms of the maze, M / F_PasN, M: 1 hour after treatment; for nootropic effect (decrease in F_PtrN and S_PtrN, increase in PatrlN): single administration into stomach
Method: Preclinical evaluation of nootropic and sedative activity of the compounds was performed in mice using spontaneous orientation (patroling behavior) test in the cross maze, that allows simultaneous evaluation of nootropic, tranquilizing, sedative and psychostimulating effects of the compounds.
For evaluation of the exploratory behavior of the animals the closed cross maze test was used (Salimov R. M., Evaluation of the ordering of the way in the process of exploratory behavior in mice. Journal of the Higher Nervous Activity, 1988, v. 38, #3, pp. 569-571).
The mouse was placed in the central compartment of the maze and the sequence of its visits in different compartments was recorded semi-automatically.
Test was completed after 12 visits (Salimov R. M., Evaluation of the ordering of the way in the process of exploratory behavior in mice. Journal of the Higher Nervous Activity, 1988, v.38, #3, pp. 569-571; Salimov R. M., McBride W. J., Sinclair J. D., Lumeng L., Li T. -K. Performance in the cross-maze and slip funnel tests of four pairs of rat lines selectively bred for divergent alcohol drinking behavior. Addict. Biol. 1996a, 1:273-280; Salimov, R. M., McBride, W. J., McKenzie, D. L., Lumeng, L. and Li, T. -K. Ethanol consumption by adolescent alcohol-preferring P rats on subsequent behavioural performance in the cross-maze and slip funnel tests. Alcohol. 1996b, 13: c. 297-300).
Subsequent computerized analysis of the record singled out a number of behavioral characteristics. The most informative among them were:
1) The total time spent by the animal in the central compartment of the maze—T_ChTm, and the total time spent by the animal in the side arms of the maze—T_GlTm.
These variables reflect the level of the motor activity of the animal and also reflect the intensity of their exploratory drive for the new environment. […] Alcohol 20:61-68; 2000; Markina N. V., Salimov R. M., Poletaeva I. I. Exploratory behaviour of F2 crosses of mouse lines having selected for different brain weight: A multivariate analysis. Prog. Neuro-Psychopharmacol. Biol. Psychiat. 2004, 28(3):583-589).
2) The latency (variable F_ChTm) and the length of the first arm visit (F_GlTm).
These variables reflect the level of anxiety of the animal in the new environment and can be used for the evaluation of the tranquilizing (anxiolythic) effect of the drug (Salimov, R. M. Different behavioral patterns related to alcohol use in rodents: A factor analysis. Alcohol. 1999, 17:157-162).
3) The duration of the first patroling cycle—variable F_PtrN, and the duration of the second patrolling cycle—variable S_PtrN.
These variables are measured by the number of the animal's visits in the maze arms, performed by the animal for the exploration of the environment before it visits all 4 arms at least once (Salimov R. M., Evaluation of the ordering of the way in the process of exploratory behavior in mice. Journal of the Higher Nervous Activity, 1988, v.38, #3, pp. 569-571; Salimov R. M., McBride W. J., Sinclair J. D., Lumeng L., Li T. -K. Performance in the cross-maze and slip funnel tests of four pairs of rat lines selectively bred for divergent alcohol drinking behavior.
4) The number of patrolling cycles—variable PatriN, executed during the time of the experiment, as one of the characteristics of the efficiency of exploratory behavior. The more patroling cycles were accomplished, the more “systematic” and efficient was the exploration of the maze.
Variables from groups 3 and 4 can be used for the evaluation of the nootropic activity of the drugs.
5) The number of right turns—variable R_TrnN, and the number of left turns—variable L_TrN, executed by the animals moving from one arm of the maze to the other, as well as asymmetry index—variable rl_Ind—of these turns:
rl_Ind ═R_TrnN*(R_TrnN+L_TrnN)^−1
6) The spontaneous stereotype behavior—variable S_VisN, that characterizes animal's visiting two arms of the maze in turn more than two times in a row. […]

[1] = 1 mg/kg, single dose, N = 15, in s (unit assumed)
[2] = single administration 0.5 mg/kg
[3] = 100 mg/kg, single dose into stomach, N = 15
[4] = 100 mg/kg, single dose into stomach, N = 15, in s (unit assumed)
[5] = 300 mg/kg, single dose into stomach, N = 15
[6] = 300 mg/kg, single dose into stomach, N = 15, in s (unit assumed)
[7] = 2.5 mg/kg, single dose into stomach, N = 12
[8] = 2.5 mg/kg, single dose into stomach, N = 12, in s (unit assumed)
[9] = 5.0 mg/kg, single dose into stomach, N = 12
[10] = 5.0 mg/kg, single dose into stomach, N = 12, in s (unit assumed)
[11] = single administration, 2.5 and 5.0 mg/kg doses

O=C(CCCN1CCC(O)(c2ccc(Cl)cc2)CC1)c1ccc(F)cc1 [Haloperidol, reference compound]
F_PtrN, duration of the first patroling cycle (number of arm visits), M (1 mg/kg, single dose, N = 15): 6.09 | L_TrnN, number of left turns, M (1 mg/kg, single dose, N = 15): 3.36 | PatrlN, number of patrolling cycles, M (1 mg/kg, single dose, N = 15): 1.91 | R_TrnN, number of right turns, M (1 mg/kg, single dose, N = 15): 3.91 | S_PtrN, duration of the second patrolling cycle (number of arm visits), M (1 mg/kg, single dose, N = 15): 5.20 | S_VisN, spontaneous stereotype behavior, M (1 mg/kg, single dose, N = 15): 2.35* | rl_Ind, asymmetry index of turns, M (1 mg/kg, single dose, N = 15): 0.54 | F_ChTm, latency of the first arm visit, M [1]: 19.30* | F_GlTm, length of the first arm visit, M [1]: 31.85* | T_ChTm, total time spent in the central compartment of the maze, M [1]: 100.65* | T_GlTm, total time spent in the side arms of the maze, M [1]: 284.67* | sedative effect (reduction in the speed of movement in the maze; increase in T_ChTm and T_GlTm) [2]: sedative effect | spontaneous stereotype behavior (variable S_VisN), change [2]: decrease

CN(C)CCOC(=O)COc1ccc(Cl)cc1 [Meclofenaxate, reference compound]
F_PasN, M [3]: 3.6 | F_PtrN, duration of the first patroling cycle (number of arm visits), M [3]: 4.8* | L_TrnN, number of left turns, M [3]: 4.5 | PatrlN, number of patrolling cycles, M [3]: 2.5* | R_TrnN, number of right turns, M [3]: 3.8 | S_PtrN, duration of the second patrolling cycle (number of arm visits), M [3]: 4.6* | S_VisN, spontaneous stereotype behavior, M [3]: 3.7 | rl_Ind, asymmetry index of turns, M [3]: 0.4 | F_ChTm, latency of the first arm visit, M [4]: 15.4 | F_GlTm, length of the first arm visit, M [4]: 29.1 | T_ChTm, total time spent in the central compartment of the maze, M [4]: 40.5 | T_GlTm, total time spent in the side arms of the maze, M [4]: 145.4 | nootropic effect (decrease in F_PtrN and S_PtrN, increase in PatrlN) (100 mg/kg): nootropic effect

NC(=O)CN1CCCC1=O [Piracetam, reference compound]
F_PasN, M [5]: 4.1 | F_PtrN, duration of the first patroling cycle (number of arm visits), M [5]: 4.5* | L_TrnN, number of left turns, M [5]: 4.5* | PatrlN, number of patrolling cycles, M [5]: 2.1 | R_TrnN, number of right turns, M [5]: 3.4* | S_PtrN, duration of the second patrolling cycle (number of arm visits), M [5]: 5.4 | S_VisN, spontaneous stereotype behavior, M [5]: 4.3* | rl_Ind, asymmetry index of turns, M [5]: 0.4* | F_ChTm, latency of the first arm visit, M [6]: 11.6 | F_GlTm, length of the first arm visit, M [6]: 25.0 | T_ChTm, total time spent in the central compartment of the maze, M [6]: 46.1 | T_GlTm, total time spent in the side arms of the maze, M [6]: 135.1 | nootropic effect (decrease in F_PtrN and S_PtrN, increase in PatrlN) (300 mg/kg): nootropic effect

Cc1ccc2c(c1)[C@H]1CN(C)CC[C@@H]1N2 [Trans-(+)-isomer, (+)-trans-2,8-dimethyl-2,3,4,4a,5,9b-hexahydro-1H-pyrido[4,3-b]indole]
F_PtrN, duration of the first patroling cycle (number of arm visits), M [7]: 5.75 | L_TrnN, number of left turns, M [7]: 4.17 | PatrlN, number of patrolling cycles, M [7]: 2.00 | R_TrnN, number of right turns, M [7]: 2.67 | S_PtrN, duration of the second patrolling cycle (number of arm visits), M [7]: 4.55*^+ | S_VisN, spontaneous stereotype behavior, M [7]: 5.75 | T_GlTm, total time spent in the side arms of the maze, M [7]: 271.98*^+ | rl_Ind, asymmetry index of turns, M [7]: 0.39 | F_ChTm, latency of the first arm visit, M [8]: 9.18 | F_GlTm, length of the first arm visit, M [8]: 22.91 | T_ChTm, total time spent in the central compartment of the maze, M [8]: 53.27* | F_PtrN, duration of the first patroling cycle (number of arm visits), M [9]: 6.30 | L_TrnN, number of left turns, M [9]: 4.82 | PatrlN, number of patrolling cycles, M [9]: 1.64 | R_TrnN, number of right turns, M [9]: 3.09 | S_PtrN, duration of the second patrolling cycle (number of arm visits), M [9]: 5.43^+ | S_VisN, spontaneous stereotype behavior, M [9]: 5.55 | T_GlTm, total time spent in the side arms of the maze, M [9]: 391.25*^+ | rl_Ind, asymmetry index of turns, M [9]: 0.38 | F_ChTm, latency of the first arm visit, M [10]: 24.60* | F_GlTm, length of the first arm visit, M [10]: 43.48* | T_ChTm, total time spent in the central compartment of the maze, M [10]: 58.27* | sedative effect compared with the other optic isomer ((+)- versus (−)-trans isomer, 2.5 and 5.0 mg/kg): higher sedative effect | nootropic effect (improvement in the patrolling behavior, decrease in S_PtrN) [11]: nootropic effect | sedative effect (reduction in the speed of movement in the maze; increase in T_ChTm and T_GlTm) [11]: sedative effect | spontaneous stereotype behavior (variable S_VisN), change [11]: did not demonstrate this ability

Cc1ccc2c(c1)[C@@H]1CN(C)CC[C@H]1N2 [Trans-(−)-isomer, (−)-trans-2,3,4,4a,5,9b-hexahydro-2,8-dimethyl-1H-pyrido[4,3-b]indole]
F_PtrN, duration of the first patroling cycle (number of arm visits), M [7]: 6.10 | L_TrnN, number of left turns, M [7]: 3.00 | PatrlN, number of patrolling cycles, M [7]: 1.67 | R_TrnN, number of right turns, M [7]: 3.08 | S_PtrN, duration of the second patrolling cycle (number of arm visits), M [7]: 4.43*^+ | S_VisN, spontaneous stereotype behavior, M [7]: 6.33 | T_GlTm, total time spent in the side arms of the maze, M [7]: 166.78*^+ | rl_Ind, asymmetry index of turns, M [7]: 0.50 | F_ChTm, latency of the first arm visit, M [8]: 10.75 | F_GlTm, length of the first arm visit, M [8]: 20.27 | T_ChTm, total time spent in the central compartment of the maze, M [8]: 33.10 | F_PtrN, duration of the first patroling cycle (number of arm visits), M [9]: 5.42 | L_TrnN, number of left turns, M [9]: 3.83 | PatrlN, number of patrolling cycles, M [9]: 2.08 | R_TrnN, number of right turns, M [9]: 5.08* | S_PtrN, duration of the second patrolling cycle (number of arm visits), M [9]: 5.00^+ | S_VisN, spontaneous stereotype behavior, M [9]: 4.17* | T_GlTm, total time spent in the side arms of the maze, M [9]: 238.16*^+ | rl_Ind, asymmetry index of turns, M [9]: 0.58 | F_ChTm, latency of the first arm visit, M [10]: 8.33 | F_GlTm, length of the first arm visit, M [10]: 33.62* | T_ChTm, total time spent in the central compartment of the maze, M [10]: 42.23* | nootropic effect (improvement in the patrolling behavior, decrease in S_PtrN) [11]: nootropic effect | sedative effect (reduction in the speed of movement in the maze; increase in T_ChTm and T_GlTm) [11]: sedative effect | spontaneous stereotype behavior (variable S_VisN), change (single administration, 2.5 and 5.0 mg/kg doses, listed as (−)-trans-2,8-dimethyl-2,3,4,4a,5,9b-hexahydro-1H-pyrido[4,3-b]indole): significantly decreased; also recorded: decrease
